Assay results as given in BigSolDB 2.1.

Conditions: in NMP

CC(C)Oc1ccc2c(=O)c(-c3ccccc3)coc2c1
Conditions | solubility (mole fraction)
278.15 K | 0.0605
283.15 K | 0.0683
288.15 K | 0.078
293.15 K | 0.0892
298.15 K | 0.101
303.15 K | 0.113
308.15 K | 0.129
313.15 K | 0.146
318.15 K | 0.165
323.15 K | 0.186
